In patent publication US20230110378A1, “MONOBACTAM COMPOUND AND USE THEREOF” (EVOPOINT BIOSCIENCES CO., LTD., priority 2019, published 2023):
Converted amounts (≈) assume the structure as drawn.

Experiments:
Assay in all cases: Minimum inhibitory concentration (broth microdilution, CLSI)
Format in all cases: cell-based
[1] = test system: Enterobacter cloacae HDBECL 30030; conditions: HDBECL30030
Method: (§1) 103 bacterial strains used for the minimum inhibitory concentration test were frozen in a −80° C. ULT freezer and thawed 2 days before use. A small amount of frozen microorganism bacteria were scraped using a sterile inoculating loop, streaked onto a suitable solid culture dish for inoculation, and then cultured for about 20 h at 35 t 2° C. in a normal incubator. • Proteus mirabilis HDBPM 40: MA, normal atmospheric environment • The remaining 102 strains of bacteria: TSA, normal atmospheric environment
(§2) 5-10 colonies with similar morphology were picked from the culture dish using a sterile inoculating loop and then re-streaked onto a corresponding solid culture dish. Then the dish was incubated in a normal incubator at 35 t 2° C. for about 20 h.
(§3) 5-10 single microbial colonies were picked from the solid culture dish, resuspended in 500 μL of sterile normal saline (0.9% NaCl), and adjusted to an OD600 of about 0.15 with a spectrophotometer.
(§4) The bacteria were then diluted 300-fold with 1.02×CAMHB to an inoculation concentration of 2×10^5 CFU/mL.
(§5) • There were a total of 3 assay plate patterns, one of which was used for each assay. • 8 rows of the assay plate (rows A-H) were for 8 test compounds, respectively. The highest test concentration of the compounds was 16, 32 or 64 μg/mL, and each compound was diluted 2-fold. • Growth control (GC): a medium containing microbial inoculum (1.02×CAMHB) and dimethylsulfoxide (DMSO) but no compound.
(§6) The test and reference compounds were dissolved in DMSO or H2O to prepare 6.4 mg/mL stock solutions. The stock solutions were diluted to prepare standby solutions with certain concentrations, and the volumes of the standby solutions were determined according to the experimental design. Corresponding volumes of the standby solutions were transferred to the starting wells of a dilution plate (A1-H1), and half the starting-well volume of DMSO to the other wells. Each compound was diluted 2-fold sequentially from column 1 to column 11 (e.g., transferring 30 μL of DMSO to columns 2-12 first, then pipetting 30 μL of the compounds from column 1 to column 2 and mixing them well, then pipetting 30 μL of the compounds from column 2 to column 3 and mixing them well, then pipetting 30 μL of the compounds from column 3 to column 4 and mixing them well, and so on to column 11).
(§7) 1 or 2 μL of the compounds and DMSO were transferred from the compound plate to corresponding wells of the assay plates.
(§8) 98 μL of corresponding bacterial inocula were added to the assay plates.
(§9) After addition, the assay plates were covered with sterile covers. The mixtures in the assay plates were centrifuged in a centrifuge at 800 rpm for 30 s, mixed well on a microplate shaker at 400 rpm for 1 min, and incubated in a normal incubator at 35 t 2° C. for 20-24 h.
(§10) The assay plates were placed on a plate reading device, and the speculum was adjusted to observe and record the growth condition of bacteria in each well. In the mean time, each assay plate was photographed with QCount system.
(§11) The minimum inhibitory concentration of each compound was recorded by reference to guidelines from the Clinical and Laboratory Standards Institute.
(§12) The minimum inhibitory concentrations of the compounds against experimental strains were tested in this study by reference to the medium microdilution method as indicated by the Clinical and Laboratory Standards Institute. Compounds were diluted two-fold in 96-well plates from the highest detection concentration of 16, 32 or 64 μg/mL. The bacterial inocula in the assay plates were thawed from corresponding medium plates and diluted in 1.02×CAMHB, while growth controls (GC wells) were set up in the assay plates. The minimum inhibitory concentration of each compound against different bacteria was observed and recorded after the assay plates were incubated in a normal incubator at 35 t 2° C. for about 20 h. The minimum inhibitory concentration values for the different compounds are listed in the list below.

[2] = test system: Escherichia coli HDBEC 30008; conditions: HDBEC30008
Method: as §1, §2, §3, §4, §5, §6, §7, §8, §9, §10, §11, §12

[3] = test system: Escherichia coli HDBEC 30016; conditions: HDBEC30016
Method: as §1, §2, §3, §4, §5, §6, §7, §8, §9, §10, §11, §12

[4] = test system: Escherichia coli HDBEC 30048; conditions: HDBEC30048
Method: as §1, §2, §3, §4, §5, §6, §7, §8, §9, §10, §11, §12

[5] = test system: Klebsiella pneumoniae HDBKP 30006; conditions: HDBKP30006
Method: as §1, §2, §3, §4, §5, §6, §7, §8, §9, §10, §11, §12

[6] = test system: Klebsiella pneumoniae HDBKP 9153; conditions: HDBKP9153
Method: as §1, §2, §3, §4, §5, §6, §7, §8, §9, §10, §11, §12

[7] = test system: Klebsiella pneumoniae HDBKP 9249; conditions: HDBKP9249
Method: as §1, §2, §3, §4, §5, §6, §7, §8, §9, §10, §11, §12

[8] = test system: Proteus mirabilis HDBPM 40; conditions: HDBPM40
Method: as §1, §2, §3, §4, §5, §6, §7, §8, §9, §10, §11, §12

[9] = test system: Pseudomonas aeruginosa HDBPA 5679; conditions: HDBPA5679
Method: as §1, §2, §3, §4, §5, §6, §7, §8, §9, §10, §11, §12

| SMILES | MIC [1] | MIC [2] | MIC [3] | MIC [4] | MIC [5] | MIC [6] | MIC [7] | MIC [8] | MIC [9] |
| --- | --- | --- | --- | --- | --- | --- | --- | --- | --- |
| CC(C)(O/N=C(\C(=O)N[C@@H]1C(=O)N(S(=O)(=O)O)[C@@H]1CNC(=O)c1cc([C@@H]2CCN(C(=O)c3ccc(O)c(O)c3F)C2)no1)c1csc(N)n1)C(=O)O [Compound I-8] | < 4 µg/mL | < 4 µg/mL | < 4 µg/mL | < 4 µg/mL | 4 to 8 µg/mL (≈ 5.2 to 10.4 µM) | < 4 µg/mL | 4 to 8 µg/mL (≈ 5.2 to 10.4 µM) | < 4 µg/mL | < 4 µg/mL |
| CC(C)(O/N=C(\C(=O)N[C@@H]1C(=O)N(S(=O)(=O)O)[C@@H]1CNC(=O)c1cnc([C@@H]2CC[N+](C)(CCNC(=O)c3ccc(O)c(O)c3Cl)C2)s1)c1csc(N)n1)C(=O)O (stereo partly drawn) [Compound I-34] | < 4 µg/mL | < 4 µg/mL | < 4 µg/mL | < 4 µg/mL | 4 to 8 µg/mL | < 4 µg/mL | 8 to 16 µg/mL | < 4 µg/mL | < 4 µg/mL |
| Nc1nc(/C(=N/OC2(C(=O)O)CC2)C(=O)N[C@H]2C(=O)N(S(=O)(=O)O)[C@H]2CNC(=O)c2cc([C@@H]3CCN(C(=O)c4cc(=O)c(O)cn4O)C3)no2)cs1 [Compound I-17] | < 4 µg/mL | < 4 µg/mL | 4 to 8 µg/mL (≈ 5.22 to 10.4 µM) | < 4 µg/mL | > 16 µg/mL | < 4 µg/mL | < 4 µg/mL | < 4 µg/mL | < 4 µg/mL |
| Nc1nc(/C(=N/OC2(C(=O)O)CC2)C(=O)N[C@@H]2C(=O)N(S(=O)(=O)O)[C@@H]2CNC(=O)c2cc([C@H]3CCN(C(=O)c4cc(=O)c(O)cn4O)C3)no2)cs1 [Compound I-25] | < 4 µg/mL | < 4 µg/mL | 4 to 8 µg/mL (≈ 5.22 to 10.4 µM) | < 4 µg/mL | > 16 µg/mL | < 4 µg/mL | 4 to 8 µg/mL (≈ 5.22 to 10.4 µM) | < 4 µg/mL | < 4 µg/mL |
| CC(C)(O/N=C(\C(=O)N[C@@H]1C(=O)N(S(=O)(=O)O)[C@@H]1CNC(=O)c1cc(C2CNC2)no1)c1csc(N)n1)C(=O)O [Compound I-6] | < 4 µg/mL | < 4 µg/mL | > 16 µg/mL | > 16 µg/mL | > 16 µg/mL | > 16 µg/mL | < 4 µg/mL | < 4 µg/mL | > 16 µg/mL |
| Nc1nc(/C(=N/OC2(C(=O)O)CC2)C(=O)N[C@@H]2C(=O)N(S(=O)(=O)O)[C@@H]2CNC(=O)c2cc([C@@H]3CCN(C(=O)c4cc(=O)c(O)cn4O)C3)no2)cs1 [Compound I-22] | < 4 µg/mL | < 4 µg/mL | 4 to 8 µg/mL (≈ 5.22 to 10.4 µM) | < 4 µg/mL | > 16 µg/mL | < 4 µg/mL | 4 to 8 µg/mL (≈ 5.22 to 10.4 µM) | < 4 µg/mL | < 4 µg/mL |
| CC(C)(O/N=C(\C(=O)N[C@H]1C(=O)N(S(=O)(=O)O)[C@H]1CNC(=O)c1cc([C@@H]2CCN(C(=O)c3cc(Cl)c(O)c(O)c3Cl)C2)no1)c1csc(N)n1)C(=O)O [Compound I-19] | < 4 µg/mL | < 4 µg/mL | 4 to 8 µg/mL (≈ 4.88 to 9.76 µM) | < 4 µg/mL | > 16 µg/mL | < 4 µg/mL | 8 to 16 µg/mL (≈ 9.76 to 19.5 µM) | < 4 µg/mL | 4 to 8 µg/mL (≈ 4.88 to 9.76 µM) |
| C[n+]1cc(-c2ncc(C(=O)NC[C@@H]3[C@H](NC(=O)/C(=N\OC(C)(C)C(=O)O)c4csc(N)n4)C(=O)N3S(=O)(=O)O)s2)cn1CCCN [Compound I-2] | < 4 µg/mL | < 4 µg/mL | > 16 µg/mL | > 16 µg/mL | < 4 µg/mL | < 4 µg/mL | < 4 µg/mL | < 4 µg/mL | > 16 µg/mL |
| CC(C)(O/N=C(\C(=O)N[C@@H]1C(=O)N(S(=O)(=O)O)[C@@H]1CNC(=O)c1cc([C@@H]2CCNC2)no1)c1csc(N)n1)C(=O)O [Compound I-5] | < 4 µg/mL | < 4 µg/mL | > 16 µg/mL | > 16 µg/mL | > 16 µg/mL | > 16 µg/mL | < 4 µg/mL | < 4 µg/mL | > 16 µg/mL |
| CC(C)(O/N=C(\C(=O)N[C@@H]1C(=O)N(S(=O)(=O)O)[C@@H]1CNC(=O)c1cnc([C@@H]2CCN(CCNC(=O)c3ccc(O)c(O)c3Cl)C2)s1)c1csc(N)n1)C(=O)O [Compound I-41] | < 4 µg/mL | < 4 µg/mL | < 4 µg/mL | < 4 µg/mL | < 4 µg/mL | < 4 µg/mL | 4 to 8 µg/mL (≈ 4.74 to 9.48 µM) | < 4 µg/mL | < 4 µg/mL |
| CC(C)(O/N=C(\C(=O)N[C@H]1C(=O)N(S(=O)(=O)O)[C@H]1CNC(=O)c1cc([C@@H]2CCN(C(=O)c3cc(=O)c(O)cn3O)C2)no1)c1nc(N)sc1Cl)C(=O)O [Compound I-26] | > 16 µg/mL | > 16 µg/mL | > 16 µg/mL | > 16 µg/mL | > 16 µg/mL | > 16 µg/mL | > 16 µg/mL | 4 to 8 µg/mL (≈ 4.99 to 9.97 µM) | > 16 µg/mL |
| C[n+]1cc(-c2ncc(C(=O)NC[C@@H]3[C@H](NC(=O)/C(=N\OC(C)(C)C(=O)O)c4nsc(N)n4)C(=O)N3S(=O)(=O)O)s2)cn1CC(N)CN (stereo partly drawn) [Compound I-15] | 4 to 8 µg/mL | 4 to 8 µg/mL | > 16 µg/mL | > 16 µg/mL | > 16 µg/mL | > 16 µg/mL | > 16 µg/mL | < 4 µg/mL | > 16 µg/mL |
| CC(C)(O/N=C(\C(=O)N[C@@H]1C(=O)N(S(=O)(=O)O)[C@@H]1CNC(=O)c1cc(-c2cc[n+](CCNC(=N)N)cc2)no1)c1csc(N)n1)C(=O)O [Compound I-3] | < 4 µg/mL | < 4 µg/mL | > 16 µg/mL | > 16 µg/mL | 4 to 8 µg/mL | > 16 µg/mL | < 4 µg/mL | < 4 µg/mL | > 16 µg/mL |
| C[n+]1cc(C(=O)NC[C@@H]2[C@H](NC(=O)/C(=N\OC(C)(C)C(=O)O)c3csc(N)n3)C(=O)N2S(=O)(=O)O)sc1-c1cnn(CC(N)CN)c1 (stereo partly drawn) [Compound I-13] | 4 to 8 µg/mL | 8 to 16 µg/mL | > 16 µg/mL | > 16 µg/mL | 8 to 16 µg/mL | 4 to 8 µg/mL | < 4 µg/mL | < 4 µg/mL | > 16 µg/mL |
| Nc1nc(/C(=N/OC2(C(=O)O)CC2)C(=O)N[C@@H]2C(=O)N(S(=O)(=O)O)[C@@H]2CNC(=O)c2cc([C@@H]3CCN(C(=O)c4ccc(O)c(O)c4Cl)C3)no2)cs1 [Compound I-23] | < 4 µg/mL | < 4 µg/mL | < 4 µg/mL | < 4 µg/mL | 8 to 16 µg/mL (≈ 10.2 to 20.4 µM) | < 4 µg/mL | < 4 µg/mL | < 4 µg/mL | < 4 µg/mL |
| CC(C)(O/N=C(\C(=O)N[C@@H]1C(=O)N(S(=O)(=O)O)[C@@H]1CNC(=O)c1cnc(C2=CC(CCCNC(=O)c3ccc(O)c(O)c3Cl)N=C2)s1)c1csc(N)n1)C(=O)O (stereo partly drawn) [Compound I-42] | < 4 µg/mL | < 4 µg/mL | < 4 µg/mL | < 4 µg/mL | < 4 µg/mL | < 4 µg/mL | 8 to 16 µg/mL (≈ 9.36 to 18.7 µM) | < 4 µg/mL | < 4 µg/mL |
| CC(C)(O/N=C(\C(=O)N[C@@H]1C(=O)N(S(=O)(=O)O)[C@@H]1CNC(=O)c1cc([C@@H]2CCN(C(=O)c3cc(=O)c(O)cn3O)C2)no1)c1nsc(N)n1)C(=O)O [Compound I-14] | < 4 µg/mL | < 4 µg/mL | > 16 µg/mL | < 4 µg/mL | > 16 µg/mL | < 4 µg/mL | > 16 µg/mL | < 4 µg/mL | < 4 µg/mL |
